Source: patent publication US20220395553A1, “CXCR4 ANTAGONIST PEPTIDES” (COHBAR, INC., priority 2019, published 2022)

Columns and labels:
C2C12 Mouse Myoblasts = assay: Glucose utilization in C2C12 mouse myoblasts; format: cell-based; conditions: metformin 1 mM
Protocol: The effect of the peptides on glucose metabolism can be assessed using an assay of glucose utilization in cultured cultured cells such as mouse myoblasts. Peptides were initially prepared as 10 mM stock in DMSO and used at a final concentration of 10 μM (0.1% DMSO). C2C12 mouse myoblast cell line was purchased from American Type Culture Collection (Manassas, Va.). C2C12 cultures were maintained at 37° C. in a humidified atmosphere of 5% CO2/95% air with medium changes every second day. C2C12 cells were grown in DMEM (1 g/L glucose) supplemented with 10% FBS with 100 IU/ml penicillin and 100 μg/ml streptomycin. C2C12 cells were seeded at 7,000 cells per well on 96-well plates and cultured to confluence. Once the cell reached confluence the media was changed to DMEM (1 g/L glucose) supplemented with 2% HS with 100 IU/ml penicillin and 100 μg/ml streptomycin and maintained at 37° C. in a humidified atmosphere of 5% CO2/95% air, 5 days post-induction of differentiation fresh DMEM (1 g/L glucose) supplemented with 2% HS with 100 IU/ml penicillin and 100 μg/ml streptomycin was added to cultures. Cells were maintained at 37° C. in a humidified atmosphere of 5% CO2 and 95% air for 5 hours. After 5 hours test peptides at 10 μM or controls (0.5 mM or 1 mM metformin in 1% DMSO) prepared in fresh differentiation medium were added to cells and the cultures were maintained at 37° C. in a humidified atmosphere of 5% CO2/95% air for 18-22 hours. At the end of the incubation culture media was removed from the cells and the remaining glucose concentration was measured using a Glucose Assay kit (Abcam) according to the manufacturer's instructions, using a Cytation 3 plate reader at 570 nm (BioTek, Winooski, Vt.). Glucose concentrations in the medium were calculated relative to 0.1% DMSO treated control cells. The relative standard deviation of the result for the 0.1% DMSO treated control was <20%. Metformin was used as a positive control for reduction of glucose levels (increased glucose utilization glucose levels for treatment with metformin (1 mM) treatment were <20% of the 0.1% DMSO treated control value. The results are reported in Table 7.

Rat H-4-II-E Cells = assay: TBHP-induced reactive oxygen species (DCFDA); format: cell-based; conditions: sulforaphane 10 uM
Protocol: The protective or synergistic effect of the peptides on cellular levels of reactive oxygen species (ROS) induced by oxidative stress can be assessed using an assay of ROS in cultured cells exposed to a suitable oxidative stress. Peptides were initially prepared as 10 mM stock in DMSO and tested at a final concentration of 10 μM (0.1% DMSO). […] TBHP was used at final concentration of […]. Sulforaphane was used at a final concentration of 10 uM as a protective antioxidant control against TBHP induced ROS production. DCFDA Cellular ROS Detection Assay kit was purchased from […]. H-4-II-E rat liver hepatoma cell line was purchased from American Type Culture Collection (Manassas, Va.). H-4-II-E cells were grown in DMEM supplemented with 10% FBS with 100 IU/ml penicillin and 100 μg/ml streptomycin. Cultures were maintained at 37° C. in a humidified atmosphere of 5% CO2/95% air. H-4-II-E cells were seeded at 15,000-20,000 cells per well on 96-well plates. The next day cells were incubated with test peptides at 10 μM in 0.1% DMSO or sulforaphane at 10 uM and maintained at 37° C. in a humidified atmosphere of 5% CO2/95% air for 18-20 hours. After 18-20 hours of incubation the cells were loaded with DCFDA for 45 min. TBHP at 100 μM was then added to the appropriate wells for 1 hour. ROS activity was determined using a DCFDA Cellular ROS Detection Assay kit (Abcam) according to the manufacturer's instructions. Fluorescence in each sample well on the plate was measured using a Cytation 3 plate reader at Ex/Em=485/535 nm (BioTek, Winooski, Vt.). Activity was calculated relative to TBHP control. […] Activity was calculated relative to THBP treated control.

Jurkat cells = assay: CXCL12 mediated cell migration, Jurkat cells; format: cell-based, human; conditions: Homo sapiens, Jurkat, 1 h, read-out: Percent Inhibition of CXCL12 Mediated Migration (1.1 μM Test Article)
Method in brief: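 Jurkat cells in serum-free RPMI with 0.5% BSA, 250,000 per upper chamber of a 5 μm Transwell, with peptides at 1.1 μM final. Migration toward CXCL12 ran 1 h at 37 °C in 5% CO2. Cells reaching the lower chamber quantified by ATP luminescence (CellTiter-Glo 2.0).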

[1] = test system: CXCR4/CXCL12 induced p-MEK; assay: CXCR4/CXCL12 induced p-MEK in Jurkat cells (ELISA); format: cell-based, human; conditions: Homo sapiens, Jurkat, 5 min
Method in brief: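 Jurkat cells in RPMI+GlutaMax containing 10% FBS and 1% penicillin/streptomycin, fresh or conditioned, were resuspended at 2×10^6 cells/ml and […] aliquots placed in tubes. After a 5 min stimulation they were pelleted, rinsed with HBSS and lysed with PMSF and protease/phosphatase inhibitors. Phospho-MEK1 (Ser217/221) was quantified by sandwich ELISA with absorbance read at 450 nm.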

U937 cells = assay: CXCL12 mediated cell migration, U937 cells; format: cell-based, human; conditions: Homo sapiens, U-937, 4 h, read-out: Percent Inhibition of CXCL12 Mediated Migration
Protocol: Peptides were initially prepared as 1 mM stock in H2O and tested at a final concentration of 1 μM. […] U937 cells were resuspended in serum free media containing 0.5% bovine serum albumin (RPMI+GlutaMax (Gibco/Thermo Fisher Scientific, Gaithersburg, Md.)) at density of 5×10^6 cells/ml. […] Following the 4 hour incubation period the filter inserts were carefully removed and the migration of cells across the filter into the bottom chamber (receiver wells) was determined by measuring ATP levels using Cell TiterGlo 2.0, according to manufacturer's instructions (Promega, Madison, Wis.); luminescence measured using a Cytation 3 plate reader (BioTek, Winooski, Vt.).

[2] = Cell viability, PrestoBlue assay; format: cell-based; conditions: human; read-out: Cell viability, % of background corrected DMSO control value
Protocol: The effect of the peptides on cell viability can be assessed in cultured cells using suitable assay of viability such as the PrestoBlue® assay (Thermo Fisher Scientific, Waltham, Mass.). Peptides were initially prepared as 10 mM stock in DMSO and tested at a final concentration of 10 μM (0.1% DMSO). […] PrestoBlue Assay Reagent was purchased from Thermo Fisher Scientific. A172 human brain glioblastoma cell line was purchased from American Type Culture Collection (Manassas, Va.). A172 cells were grown in DMEM supplemented with 10% FBS with 100 IU/ml penicillin and 100 μg/ml streptomycin. Cultures were maintained at 37° C. in a humidified atmosphere of 5% CO2/95% air. A172 cells were seeded at 8,000 cells per well on 96-well plates. […] Cell viability was determined using a PrestoBlue Assay reagent […] according to the manufacturer's instructions. Absorption for each sample well on the plate was measured using a Cytation 3 plate reader at 560 nm and 590 nm (BioTek, Winooski, Vt.). Activity was calculated relative to 0.1% DMSO untreated control. Treatment with 0.1% DMSO alone was used as the cell viability activity control. The relative standard deviation of the DMSO control was <5%.

[3] = test system: SH-SY5Y Neuroblastoma Cells; assay: ATP levels (CellTiter-Glo); format: cell-based, human; conditions: staurosporine 1 μM
Protocol: The effect of the peptides on cellular metabolism can be assessed using an assay of ATP levels in cultured cells such as human neuroblastoma cells. Peptides were initially prepared as 10 mM stock in DMSO and used at a final concentration of 10 μM (0.1% DMSO). […] CellTiter-Glo® Assay kit was purchased from Promega. SH-SY5Y human bone marrow neuroblastoma cell line was purchased from American Type Culture Collection (Manassas, Va.) and licensed from Memorial Sloan-Kettering Cancer Center (New York, N.Y.). SH-SY5Y cells were grown in DMEM/F12 medium supplemented with 10% FBS with 100 IU/ml penicillin and 100 μg/ml streptomycin. Cultures were maintained at 37° C. in a humidified atmosphere of 5% CO2/95% air. SH-SY5Y cells were seeded at 30,000 cells per well on 96-well plates. […] ATP levels were determined using a CellTiter-Glo Assay kit (Promega) according to the manufacturer's instructions. Luminescence for each sample well on the plate was measured using a Cytation 3 plate reader (BioTek, Winooski, Vt.). Activity was calculated relative to 0.1% DMSO treated control. The relative standard deviation of the result for the 0.1% DMSO treated control was <5%.

Structure (SMILES): CN(C)C(=N)N=C(N)N [metformin, Metformin, reference compound]
- Glucose levels, % of 0.1% DMSO treated control value (C2C12 Mouse Myoblasts): < 20%

Structure (SMILES): C[S+]([O-])CCCCN=C=S (centres unmarked) [sulphorophane, Sulforaphane, reference compound]
- ROS levels, % of the THBP-induced ROS level (Rat H-4-II-E Cells): 45.5%

Structure (SMILES): c1cc(CN2CCCNCCNCCCNCC2)ccc1CN1CCCNCCNCCCNCC1 [AMD3100, reference compound]
- inhibition at 1.1 µM (Jurkat cells): 91%
- inhibition at 0.1 µM ([1]; read-out: Percent Inhibition of CXCR4/CXCL12 Induced p-MEK (100 nM Test Article)): 79%
- inhibition at 1 µM ([1]; read-out: Percent Inhibition of CXCR4/CXCL12 Induced p-MEK (1 μM Test Article)): 91%
- inhibition at 30 µM (U937 cells): 99%

Structure (SMILES): CN[C@@H]1C[C@H]2O[C@@](C)([C@@H]1OC)n1c3ccccc3c3c4c(c5c6ccccc6n2c5c31)C(=O)NC4 [staurosporine, Staurosporine, reference compound]
- viability at 1 µM [2]: < 75%
- ATP levels, % of 0.1% DMSO treated control value [3]: < 5%
